Four compounds from doi:10.1101/252379v1 (biorxiv, 2018) can be followed below.

Experiment [1] concerns the target T1, Sir2La (Lactobacillus acidophilus, UniProt Q5FMQ6).
T1 sequence (Q5FMQ6 1-239): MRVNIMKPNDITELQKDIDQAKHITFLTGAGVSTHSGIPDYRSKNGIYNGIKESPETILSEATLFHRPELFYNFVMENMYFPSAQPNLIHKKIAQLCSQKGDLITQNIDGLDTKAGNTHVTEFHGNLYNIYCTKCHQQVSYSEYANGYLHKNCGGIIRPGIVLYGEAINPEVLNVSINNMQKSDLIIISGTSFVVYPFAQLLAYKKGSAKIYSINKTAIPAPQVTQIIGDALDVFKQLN
In words: biochemical. Conditions: 6 IC50 (µM), continuous, continuous assay.

For experiment [2], the target named is T1, Sir2La. In words: end-point fluorogenic deacylase assay. Format: biochemical.
Experiment [3] addresses T1, Sir2La. In words: fluorogenic deacylase assay. Format: biochemical. Particulars: read-out: % residual activity at 50 μM.

As a reminder, the IC50 is the concentration at which inhibition is half-maximal. A high value points to weaker potency in that assay. With `CC(=S)NCCCC[C@H](NC(=O)OCc1ccccc1)C(=O)N[C@@H](Cc1c[nH]c2ccccc12)C(=O)NC(C)C` [compound 6, thioacetamide 6], the IC50 at Sir2La [1] (Ac-LGKac-AMC (2b)) stood at 5.8 ± 0.1 µM; against Sir2La [1] (Ac-LGKpro-AMC (2c)), 12 µM; against Sir2La [2], 15 ± 2 µM.
Take `CNC(=S)NCCCC[C@H](NC(=O)OCc1ccccc1)C(=O)N[C@@H](Cc1c[nH]c2ccccc12)C(=O)NC(C)C` [compound 7, thiourea 7]: the remaining activity at 50 µM at Sir2La [3] came to 77%.
Regarding `NC(=O)c1cccnc1` [nicotinamide], inhibition against Sir2La [2] was half-maximal at 350 ± 70 µM (IC50).
On the same count and under the same terms, for `Cc1ccc(C(=O)Nc2ccc(S(=O)(=O)O)c3cc(S(=O)(=O)O)cc(S(=O)(=O)O)c23)cc1NC(=O)c1cccc(NC(=O)Nc2cccc(C(=O)Nc3cc(C(=O)Nc4ccc(S(=O)(=O)O)c5cc(S(=O)(=O)O)cc(S(=O)(=O)O)c45)ccc3C)c2)c1` [suramin] the value was 100 ± 30 µM.
